In patent EP4667458A1 (Kanaph Therapeutics Inc., priority 2023, dated 2024) one finds IC50 data, which are given here for 25 molecules.

Bounds are passed on as bounds.

For one assay, the target named is T1, KRAS^G12C::SOS1 (Homo sapiens, UniProt Q07889).
T1 sequence (Q07889 1-1333): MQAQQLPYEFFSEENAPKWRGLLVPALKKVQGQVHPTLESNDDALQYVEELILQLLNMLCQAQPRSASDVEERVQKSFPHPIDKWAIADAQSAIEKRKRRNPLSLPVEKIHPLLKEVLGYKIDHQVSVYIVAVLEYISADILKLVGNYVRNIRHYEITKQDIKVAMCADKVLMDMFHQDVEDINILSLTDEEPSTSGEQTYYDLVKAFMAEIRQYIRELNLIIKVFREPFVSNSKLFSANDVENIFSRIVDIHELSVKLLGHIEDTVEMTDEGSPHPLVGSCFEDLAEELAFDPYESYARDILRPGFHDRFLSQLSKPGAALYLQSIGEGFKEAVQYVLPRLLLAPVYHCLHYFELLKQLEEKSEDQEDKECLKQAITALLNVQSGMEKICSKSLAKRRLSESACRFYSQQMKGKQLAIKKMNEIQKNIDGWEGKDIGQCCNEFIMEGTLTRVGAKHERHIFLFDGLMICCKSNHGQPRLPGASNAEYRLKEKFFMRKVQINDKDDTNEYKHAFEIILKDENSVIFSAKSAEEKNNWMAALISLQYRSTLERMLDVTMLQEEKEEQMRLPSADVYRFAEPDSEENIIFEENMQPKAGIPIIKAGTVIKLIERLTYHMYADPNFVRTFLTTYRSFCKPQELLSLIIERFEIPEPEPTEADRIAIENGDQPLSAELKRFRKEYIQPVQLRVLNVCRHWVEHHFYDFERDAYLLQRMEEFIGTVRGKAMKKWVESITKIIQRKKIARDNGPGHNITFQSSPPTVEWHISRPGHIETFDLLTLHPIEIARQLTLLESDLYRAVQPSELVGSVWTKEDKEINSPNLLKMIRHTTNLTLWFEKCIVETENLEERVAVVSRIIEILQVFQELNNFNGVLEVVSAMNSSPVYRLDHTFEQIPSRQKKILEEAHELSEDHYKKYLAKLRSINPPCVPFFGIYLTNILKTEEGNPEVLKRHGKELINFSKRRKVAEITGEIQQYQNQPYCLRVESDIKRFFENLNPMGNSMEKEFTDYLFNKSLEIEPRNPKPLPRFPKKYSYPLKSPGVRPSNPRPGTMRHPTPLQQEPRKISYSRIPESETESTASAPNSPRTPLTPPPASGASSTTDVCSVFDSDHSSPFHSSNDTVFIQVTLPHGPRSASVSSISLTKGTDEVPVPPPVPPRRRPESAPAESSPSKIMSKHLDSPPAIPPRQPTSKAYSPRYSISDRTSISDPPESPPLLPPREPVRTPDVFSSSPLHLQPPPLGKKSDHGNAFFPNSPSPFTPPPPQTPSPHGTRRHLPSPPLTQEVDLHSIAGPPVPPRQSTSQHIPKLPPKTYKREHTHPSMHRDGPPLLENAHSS
The experiment in a line: KRAS G12C::SOS1 protein-protein interaction (PPI) inhibition assay (HTRF binding kit).
Details: not given
As for `C[C@@H](NC(=O)c1ccc(=O)n(-c2ccccc2)n1)c1cccc(I)c1` [Example 188, (R)-N-(1-(3-iodophenyl)ethyl)-6-oxo-1-phenyl-1,6-dihydropyridazine-3-carboxamide], the IC50 – broadly, the point on the concentration scale where inhibition reaches its midpoint – was less than 1000 nM.
As for `COc1ccc(F)c(-n2nc(C(=O)N[C@H](C)c3cccc(C(F)(F)CO)c3F)ccc2=O)c1` [Example 182, N-[(1R)-1-[3-(1,1-difluoro-2-hydroxy-ethyl)-2-fluoro-phenyl]ethyl]-1-(2-fluoro-5-methoxyphenyl)-6-oxo-pyridazine-3-carboxamide], the IC50 was less than 1000 nM.
Same read-out and setting: the value for `CNCc1ccc(C#N)cc1-c1ccc([C@@H](C)NC(=O)c2ccc(=O)n(-c3ccccc3F)n2)s1` [Example 410] was less than 1000 nM; that for `C[C@@H](NC(=O)c1ccc(=O)n(-c2cccnc2F)n1)c1ccc(-c2cc(F)ccc2CCN)s1` [Example 414, N-[(1R)-1-[5-[2-(2-aminoethyl)-5-fluorophenyl]-2-thienyl]ethyl]-1-(2-fluoro-3-pyridyl)-6-oxopyridazine-3-carboxamide] was less than 1000 nM.
Molecule `C[C@@H](NC(=O)c1ccc(=O)n(-c2ccccc2OC(F)F)n1)c1cc(N)cc(C(F)(F)F)c1` [Example 247, N-[(1R)-1-[3-amino-5-(trifluoromethyl)phenyl]ethyl]-1-[2-(difluoromethoxy)phenyl]-6-oxo-pyridazine-3-carboxamide] registered an IC50 of less than 1000 nM.
For `CNCc1ccc(Cl)cc1-c1ccc([C@@H](C)NC(=O)c2ccc(=O)n(-c3cccnc3)n2)s1` [Example 285, N-[(1R)-1-[5-[5-chloro-2-(methylaminomethyl)phenyl]-2-thienyl]ethyl]-6-oxo-1-(3-pyridyl)pyridazine-3-carboxamide], the IC50 was less than 1000 nM.
On to `CNC(=O)c1cccc(-n2nc(C(=O)N[C@H](C)c3cc(N)cc(C(F)(F)F)c3)ccc2=O)c1F` [Example 231, (R)-N-(1-(3-amino-5-(trifluoromethyl)phenyl)ethyl)-1-(2-fluoro-3-(methylcarbamoyl)phenyl)-6-oxo-1,6-dihydropyridazine-3-carboxamide], for which the 50% inhibitory concentration (IC50) is less than 1000 nM.
For the molecule `CNCc1ccc(Cl)cc1-c1ccc([C@@H](C)NC(=O)c2ccc(=O)n(-c3cccnc3NC)n2)s1` [Example 271, N-[(1R)-1-[5-[5-chloro-2-(methylaminomethyl)phenyl]-2-thienyl]ethyl]-1-[2-(methylamino)-3-pyridyl]-6-oxo-pyridazine-3-carboxamide], the concentration for half-maximal inhibition (IC50) is less than 1000 nM.
The same measure, in the same setting: the value for `C[C@@H](NC(=O)c1ccc(=O)n(-c2cccc(-c3ncco3)c2)n1)c1cc(N)cc(C(F)(F)F)c1` [Example 239, N-[(1R)-1-[3-amino-5-(trifluoromethyl)phenyl]ethyl]-1-[3-(1,3-oxazol-2-yl)phenyl]-6-oxo-1,6-dihydropyridazine-3-carboxamide] was 1000 to 10000 nM.
On to `COc1cc(-n2nc(C(=O)N[C@H](C)c3cc(N)cc(C(F)(F)F)c3)ccc2=O)ccn1` [Example 196, N-[(1R)-1-[3-amino-5-(trifluoromethyl)phenyl]ethyl]-1-(2-methoxy-4-pyridyl)-6-oxo-pyridazine-3-carboxamide], for which the IC50 was less than 1000 nM.
Same read-out and setting: the value for `CNCc1cc2c(cc1-c1ccc([C@@H](C)NC(=O)c3ccc(=O)n(-c4ccccc4F)n3)s1)CCC2` [Example 274, 1-(2-fluorophenyl)-N-[(1R)-1-[5-[6-(methylaminomethyl)indan-5-yl]-2-thienyl]ethyl]-6-oxo-pyridazine-3-carboxamide] was less than 1000 nM.
The molecule `CNCc1cc(F)ccc1-c1ccc([C@@H](C)NC(=O)c2ccc(=O)n(-c3ccccc3F)c2)s1` [Example 280, N-[(1R)-1-[5-[4-fluoro-2-(methylaminomethyl)phenyl]-2-thienyl]ethyl]-1-(2-fluorophenyl)-6-oxo-pyridine-3-carboxamide] displayed a half-inhibitory concentration (IC50) of less than 1000 nM.
Same read-out and setting: the result for `COCc1cccc(-n2nc(C(=O)N[C@H](C)c3cc(N)cc(C(F)(F)F)c3)ccc2=O)c1` [Example 205, N-[(1R)-1-[3-amino-5-(trifluoromethyl)phenyl]ethyl]-1-[3-(methoxymethyl)phenyl]-6-oxo-pyridazine-3-carboxamide] reads less than 1000 nM; that for `C[C@@H](NC(=O)c1ccc(=O)n(-c2ccccc2F)n1)c1cc(N)cc(C(F)(F)F)c1F` [Example 245, N-[(1R)-1-[5-amino-2-fluoro-3-(trifluoromethyl)phenyl]ethyl]-1-(2-fluorophenyl)-6-oxo-pyridazine-3-carboxamide], less than 1000 nM.
The same measure, in the same setting: the value for `C[C@@H](NC(=O)c1nn(-c2ccccc2F)c(=O)c2ccsc12)c1cc(N)cc(C(F)(F)F)c1` [Example 309, N-[(1R)-1-[3-amino-5-(trifluoromethyl)phenyl]ethyl]-5-(2-fluorophenyl)-4-oxo-thieno[2,3-d]pyridazine-7-carboxamide] was less than 1000 nM; that for `C[C@@H](NC(=O)c1ccc(=O)n(-c2cccc(-c3ncnn3C)c2)n1)c1cc(N)cc(C(F)(F)F)c1` [Example 328, N-[(1R)-1-[3-amino-5-(trifluoromethyl)phenyl]ethyl]-1-[3-(2-methyl-1,2,4-triazol-3-yl)phenyl]-6-oxo-pyridazine-3-carboxamide] was less than 1000 nM.
With `COc1ccc(-n2nc(C(=O)N[C@H](C)c3cc(N)cc(C(F)(F)F)c3)ccc2=O)cc1C(=O)N(C)C` [Example 207, N-[(1R)-1-[3-amino-5-(trifluoromethyl)phenyl]ethyl]-1-[3-(dimethylcarbamoyl)-4-methoxy-phenyl]-6-oxo-pyridazine-3-carboxamide], the IC50 was less than 1000 nM.
`C[C@@H](NC(=O)c1ccc(=O)n(-c2ccccc2F)n1)c1cccc(-n2ccccc2=O)c1` [Example 303, 1-(2-fluorophenyl)-6-oxo-N-[(1R)-1-[3-(2-oxo-1-pyridyl)phenyl]ethyl]pyridazine-3-carboxamide] displayed a 50% inhibitory concentration (IC50) greater than 10000 nM.
Same read-out and setting: the value for `C[C@@H](NC(=O)c1ccc(=O)n(-c2ccccc2F)n1)c1cccc(C(F)(F)CN(C)C)c1F` [Example 257, N-[(1R)-1-[3-[2-(dimethylamino)-1,1-difluoro-ethyl]-2-fluorophenyl]ethyl]-1-(2-fluorophenyl)-6-oxo-pyridazine-3-carboxamide] was less than 1000 nM; that for `COc1ccccc1-n1cc(C(=O)N[C@H](C)c2cc(N)cc(C(F)(F)F)c2)ccc1=O` [Example 168, N-[(1R)-1-[3-amino-5-(trifluoromethyl)phenyl]ethyl]-1-(2-methoxyphenyl)-6-oxo-pyridine-3-carboxamide] was less than 1000 nM.
As to `C[C@@H](NC(=O)c1ccc(=O)n(-c2cccc(C(=O)N3CCNCC3)c2)n1)c1cc(N)cc(C(F)(F)F)c1` [Example 250, N-[(1R)-1-[3-amino-5-(trifluoromethyl)phenyl]ethyl]-6-oxo-1-[3-(piperazine-1-carbonyl)phenyl]pyridazine-3-carboxamide], the half-maximal inhibitory concentration (IC50) is less than 1000 nM.
Still for that read-out and setting: the value for `Cc1ncc(-n2nc(C(=O)N[C@H](C)c3cc(N)cc(C(F)(F)F)c3)ccc2=O)s1` [Example 385, N-[(1R)-1-[3-amino-5-(trifluoromethyl)phenyl]ethyl]-1-(2-methylthiazol-5-yl)-6-oxo-pyridazine-3-carboxamide] was less than 1000 nM.
On the same count and under the same terms, the value for `COc1ccc(-n2nc(C(=O)N[C@H](C)c3cccc(C(F)(F)CO)c3F)ccc2=O)cc1C(=O)N(C)C` [Example 206, N-[(1R)-1-[3-(1,1-difluoro-2-hydroxy-ethyl)-2-fluoro-phenyl]ethyl]-1-[3-(dimethylcarbamoyl)-4-methoxy-phenyl]-6-oxo-pyridazine-3-carboxamide] was less than 1000 nM.
Consider `C[C@H](NC(=O)c1ccc(=O)n(-c2ccccc2F)n1)c1cccc(F)c1Cl` [Example 262, N-[(1S)-1-(2-chloro-3-fluorophenyl)ethyl]-1-(2-fluorophenyl)-6-oxo-pyridazine-3-carboxamide], for which the half-maximal inhibitory concentration (IC50) lay in the range of 1000 to 10000 nM.

The same assay, now with this note: read-out: KRAS ^G12C::SOS1 PPI assay (IC50 range, Grade); maximum concentration 3 µM, 8 concentrations, three replicates.
With “N-[(1R)-1-[3-amino-5-(trifluoromethyl)phenyl]ethyl]-6-oxo-1-[3-(4-pyridyl)phenyl]pyridazine-3-carboxamide [Example 346]”, the IC50 is less than 1000 nM.
